# Test results taken from ChEMBL document CHEMBL1133646 (J Med Chem, 2000).
# Experiments:
# Assay type in all cases: functional
# Mus musculus [1] = test: Mean day to death of mice at 0 mg/kg/day
# Mus musculus [2] = test: Mean day to death of mice at 0.1 mg/kg/day
# Mus musculus [3] = test: Survival rate of mice infected with A/Turkey/Mass/76 XA/Beijing/32/92 (H6N2) virus at a dose of 0 mg/kg/day; 1/9 (1 survived out of 9 mice)
# Mus musculus [4] = test: Survival rate of mice infected with A/Turkey/Mass/76 XA/Beijing/32/92 (H6N2) virus at a dose of 0.1 mg/kg/day; 7/9 (7 survived out of 9 mice)
# Mus musculus [5] = test: Survival rate of mice infected with A/Turkey/Mass/76 XA/Beijing/32/92 (H6N2) virus at a dose of 1.0 mg/kg/day; 9/9 (9 survived out of 9 mice)
structure (smiles),measurement,setting,value
CCC(CC)[C@H](NC(C)=O)[C@@H]1[C@H](O)[C@@H](C(=O)O)C[C@H]1NC(=N)N [PERAMIVIR ANHYDROUS],Mean day,Mus musculus [1],8.8
same,Mean day,Mus musculus [2],9
same,Survival,Mus musculus [3],1
same,Survival,Mus musculus [4],<7
same,Survival,Mus musculus [5],<9
